The results in this text go back to patent US20240010653A1, “Crystalline Forms of 4-amino-N-[4-(methoxymethyl)phenyl]-7-(1-methylcyclopropyl)-6-(3-morpholinoprop-1-yn-1-yl)-7H-pyrrolo[2,3-d]pyrimidine-5-carboxamide” (Helsinn Healthcare SA, priority 2020, published 2024).

Counter-ions that a name gives are not always drawn.

The data set in a line: Solid form (polymorph) stability on storage, followed by XRPD. It is filed as physicochemical. To be noted: for Form stability (XRPD) after storage in a sealed vial: seven days in a sealed vial. As to the method: The stability of Form 4-bis was assessed after seven days of storage in a sealed vial.
HM06 1:2 HCl Form 4 exposed powder was stored overnight at room temperature under 43% RH.
The stability of the HM06 1:2 HCl Form 5-bis sample was assessed after 18 hours exposed to air and after one week in a sealed vial, both at room temperature.
Form 5-bis was measured after 18 hours exposed powder at room temperature. The % RH was approx. of 45%.
These changes could not be associated with conversion into one of the other isolated polymorphs observed during this study: thus, the sample was considered not stable.
HM06 1:2 HCl Form 5-bis was measured after seven days at room temperature in a sealed vial.
Form 6 was collected after evaporation of HM06 1:2 HCl Form 1 in a 1:1 acetonitrile/water solution at room temperature under low pressure.

Regarding `COCc1ccc(NC(=O)c2c(C#CCN3CCOCC3)n(C3(C)CC3)c3ncnc(N)c23)cc1` [HM06 1:2 HCl Form 4-bis, 4-amino-N-[4-(methoxymethyl)phenyl]-7-(1-methylcyclopropyl)-6-(3-morpholinoprop-1-yn-1-yl)-7H-pyrrolo[2,3-d]pyrimidine-5-carboxamide], the “Form stability (XRPD) after storage in a sealed vial” value (listed as Form 4-bis) was “complete conversion into Form 1”.

On to `COCc1ccc(NC(=O)c2c(C#CCN3CCOCC3)n(C3(C)CC3)c3ncnc(N)c23)cc1` [HM06 1:2 HCl Form 5-bis, 4-amino-N-[4-(methoxymethyl)phenyl]-7-(1-methylcyclopropyl)-6-(3-morpholinoprop-1-yn-1-yl)-7H-pyrrolo[2,3-d]pyrimidine-5-carboxamide], for which the “Form stability (XRPD) after storage in a sealed vial” value was “started to convert into Form 1”. Further, the “Form stability (XRPD) of exposed powder” value (18 hours exposed to air at room temperature, approx. 45% RH) is “not stable”.

In the case of `COCc1ccc(NC(=O)c2c(C#CCN3CCOCC3)n(C3(C)CC3)c3ncnc(N)c23)cc1` [HM06 1:2 HCl Form 6, 4-amino-N-[4-(methoxymethyl)phenyl]-7-(1-methylcyclopropyl)-6-(3-morpholinoprop-1-yn-1-yl)-7H-pyrrolo[2,3-d]pyrimidine-5-carboxamide], the “Form stability on storage” value (6 days of storage, room temperature under low pressure) is “conversion into Form 1”.
